The record followed here is ChEMBL document CHEMBL1201862, “PubChem BioAssay data set” (2004).

Test [1] deals with T1, Zinc finger protein mex-5 (Caenorhabditis elegans, UniProt Q9XUB2).
T1 sequence (Q9XUB2 whole entry): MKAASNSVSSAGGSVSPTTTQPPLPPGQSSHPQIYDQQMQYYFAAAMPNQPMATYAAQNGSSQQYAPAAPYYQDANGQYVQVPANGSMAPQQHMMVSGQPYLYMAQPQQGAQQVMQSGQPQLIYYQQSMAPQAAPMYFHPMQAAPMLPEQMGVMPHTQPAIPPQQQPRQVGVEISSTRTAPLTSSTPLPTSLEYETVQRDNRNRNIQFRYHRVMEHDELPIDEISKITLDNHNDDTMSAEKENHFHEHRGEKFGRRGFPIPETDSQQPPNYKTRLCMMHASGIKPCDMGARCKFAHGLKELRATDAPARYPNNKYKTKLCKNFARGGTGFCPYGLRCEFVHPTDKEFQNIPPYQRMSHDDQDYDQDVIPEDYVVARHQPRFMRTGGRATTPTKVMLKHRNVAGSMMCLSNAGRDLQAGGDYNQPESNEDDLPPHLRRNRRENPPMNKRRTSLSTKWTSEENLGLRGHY
In words: MEX-5/TCR-2 RNA interaction inhibitors, dose response, biochemical, C. elegans, fluorescence polarization (AID 1960).

The target of test [2] is T2, RNA-binding protein pos-1 (Caenorhabditis elegans, UniProt G5EF15).
T2 sequence (G5EF15 whole entry): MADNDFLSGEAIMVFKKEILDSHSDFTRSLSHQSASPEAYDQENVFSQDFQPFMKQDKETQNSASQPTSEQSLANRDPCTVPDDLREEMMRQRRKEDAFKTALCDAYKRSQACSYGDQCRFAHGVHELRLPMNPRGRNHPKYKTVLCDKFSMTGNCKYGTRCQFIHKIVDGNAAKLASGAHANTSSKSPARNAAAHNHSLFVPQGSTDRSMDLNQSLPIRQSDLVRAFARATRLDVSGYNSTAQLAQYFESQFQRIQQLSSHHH
In words: inhibitors of POS-1/mex-3 RNA binding, dose response, biochemical, fluorescence polarization (AID 1964).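 Also: purified POS-1 fused to maltose binding protein made in E. coli; potency of compounds blocking POS-1 binding to fluorescent RNA.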

The target in test [3] is T3, Cytochrome P450 1A2 (Homo sapiens, UniProt P05177).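 Also: PubChem cytochrome P450 panel assay, CYP1A2 panel member.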
T3 sequence (P05177 whole entry): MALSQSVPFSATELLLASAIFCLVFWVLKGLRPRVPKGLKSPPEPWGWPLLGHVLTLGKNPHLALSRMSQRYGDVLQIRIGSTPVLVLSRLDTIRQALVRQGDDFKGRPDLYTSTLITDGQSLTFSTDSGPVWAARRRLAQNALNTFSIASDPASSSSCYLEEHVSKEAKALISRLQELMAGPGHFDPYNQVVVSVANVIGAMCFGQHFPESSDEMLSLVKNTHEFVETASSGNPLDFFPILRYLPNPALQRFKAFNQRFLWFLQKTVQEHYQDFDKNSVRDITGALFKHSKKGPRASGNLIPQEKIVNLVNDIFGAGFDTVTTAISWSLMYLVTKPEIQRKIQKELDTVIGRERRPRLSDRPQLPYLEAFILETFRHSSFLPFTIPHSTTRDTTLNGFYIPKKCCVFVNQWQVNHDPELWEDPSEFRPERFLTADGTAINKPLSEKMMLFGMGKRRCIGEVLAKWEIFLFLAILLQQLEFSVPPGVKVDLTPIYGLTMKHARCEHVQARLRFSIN

Test [4] has as its target Cytochrome P450 2C19 (Homo sapiens, UniProt P33261). The test can be described thus: Cytochrome panel assay with activity outcomes. Panel member name: p450-cyp2c19 Compounds with AC50 equal or less than 10 uM are considered active. Conditions: read-out: AC50. In kind it is functional.
The target of test [5] is Cytochrome P450 2C9 (Homo sapiens, UniProt P11712).
The target in test [6] is Cytochrome P450 3A4 (Homo sapiens, UniProt P08684).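 Also: CYP3A4 tested as one member of a cytochrome P450 panel screen.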

Calls of active or inactive are those of the source.

Sequence of Cytochrome P450 2C9 (P11712 whole entry): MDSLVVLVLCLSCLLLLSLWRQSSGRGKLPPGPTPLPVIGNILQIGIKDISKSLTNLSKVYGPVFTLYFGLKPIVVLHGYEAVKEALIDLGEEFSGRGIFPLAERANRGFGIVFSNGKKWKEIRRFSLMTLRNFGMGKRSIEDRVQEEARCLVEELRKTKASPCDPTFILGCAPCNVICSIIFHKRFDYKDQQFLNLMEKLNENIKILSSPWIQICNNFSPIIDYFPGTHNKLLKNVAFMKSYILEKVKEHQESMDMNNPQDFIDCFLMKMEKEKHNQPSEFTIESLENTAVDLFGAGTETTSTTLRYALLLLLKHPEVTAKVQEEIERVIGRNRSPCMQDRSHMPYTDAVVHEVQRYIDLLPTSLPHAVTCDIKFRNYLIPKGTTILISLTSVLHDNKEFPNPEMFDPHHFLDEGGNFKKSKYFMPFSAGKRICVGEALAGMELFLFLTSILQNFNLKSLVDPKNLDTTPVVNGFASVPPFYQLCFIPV
Sequence of Cytochrome P450 2C19 (P33261 whole entry): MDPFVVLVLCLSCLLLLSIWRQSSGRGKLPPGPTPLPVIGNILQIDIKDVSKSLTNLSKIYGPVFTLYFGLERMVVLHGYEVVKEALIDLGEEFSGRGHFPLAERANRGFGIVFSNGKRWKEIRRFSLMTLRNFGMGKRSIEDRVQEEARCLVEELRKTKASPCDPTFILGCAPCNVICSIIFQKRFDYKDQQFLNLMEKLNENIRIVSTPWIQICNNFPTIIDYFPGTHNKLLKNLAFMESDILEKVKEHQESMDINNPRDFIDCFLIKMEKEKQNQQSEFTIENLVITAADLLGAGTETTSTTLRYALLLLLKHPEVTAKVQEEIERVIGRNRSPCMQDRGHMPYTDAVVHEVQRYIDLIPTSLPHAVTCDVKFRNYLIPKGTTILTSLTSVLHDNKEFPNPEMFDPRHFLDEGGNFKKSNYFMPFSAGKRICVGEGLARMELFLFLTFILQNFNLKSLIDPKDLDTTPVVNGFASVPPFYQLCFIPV
Sequence of Cytochrome P450 3A4 (P08684 whole entry): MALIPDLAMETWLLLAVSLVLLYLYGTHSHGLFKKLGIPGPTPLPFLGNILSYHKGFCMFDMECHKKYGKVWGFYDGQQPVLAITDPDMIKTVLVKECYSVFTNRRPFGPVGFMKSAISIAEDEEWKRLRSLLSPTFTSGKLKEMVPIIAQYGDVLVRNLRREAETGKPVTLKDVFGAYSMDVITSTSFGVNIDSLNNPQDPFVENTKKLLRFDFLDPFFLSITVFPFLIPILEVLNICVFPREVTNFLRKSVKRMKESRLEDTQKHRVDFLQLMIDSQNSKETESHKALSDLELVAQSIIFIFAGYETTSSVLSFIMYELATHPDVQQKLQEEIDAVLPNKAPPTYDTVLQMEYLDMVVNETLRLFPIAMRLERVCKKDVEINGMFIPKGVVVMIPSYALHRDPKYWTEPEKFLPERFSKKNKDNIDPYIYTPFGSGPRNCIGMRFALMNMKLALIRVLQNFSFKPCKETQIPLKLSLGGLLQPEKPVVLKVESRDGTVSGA

As to `COC(=O)c1ccc(-n2c(C)cc(C(=O)COC(=O)CNS(=O)(=O)c3ccc(C)cc3)c2C)cc1`, the concentration for a half-maximal effect (EC50) in test [1] and in test [2] was > 300 µM (not active) throughout. As to `Cc1c(Nc2ncccc2C(=O)O)cccc1C(F)(F)F`, in test [3], the AC50 was 12.6 µM (inconclusive). As for `COc1cc(OC)c(/C=C2/C(=O)Nc3ccccc32)c(OC)c1`, in test [4], the half-maximal activity concentration (AC50) was 31.6 µM (inconclusive). For `CCCc1c(O)nc(SCC(=O)N2CCCCC2)nc1O`, the concentration for a half-maximal effect (EC50) in test [1] and in test [2] was > 300 µM (not active) each time. Take `Cc1cnc(CNc2ncncc2-c2ccc(C(=O)N(C)C)cc2)cn1`: in test [3], the half-maximal activity concentration (AC50) is 20 µM (inconclusive). Turning to `CCOC(=O)c1cc(=O)n2nc(-c3ccc(C)cc3)nc2s1`, the half-maximal effective concentration (EC50) in test [1] and in test [2] was > 300 µM (not active) each time. With `O=C(c1cnccn1)N1CCC[C@@]2(CCN(c3ccccn3)C2)C1`, in test [3], the AC50 was 20 µM (inconclusive). Same read-out and setting: for `NC[C@H](CP(=O)(O)O)c1ccc(Cl)cc1` the value was 39.8 µM (inconclusive). Same read-out and setting: for `CN(CCC(=O)O)C1=Nc2ccc(Cl)cc2C(c2ccccc2)=[N+]([O-])C1` the value was 0.0631 µM (inconclusive). `N#C/C(=C\N1CCNC1=S)C(=O)c1ccc2ccccc2c1`: the AC50 in test [5] was 3.16 µM (inconclusive); in test [3], 1.58 µM (inconclusive). For the molecule `CCOC(=O)N1CCC(NC(=O)C(Cc2ccccc2)NC(=O)C2CCCCC2)CC1` (configuration not stated), the EC50 in test [1] and in test [2] was > 300 µM (not active) each time. In the case of `CCC(=O)Nc1ccc(C(=O)NNC(=O)c2cccs2)cc1`, the concentration at half-maximal activity (AC50) in test [4] was 0.891 µM (inconclusive).

With `O=c1/c(=C\c2ccc(O)cc2)sc2nc(-c3ccccc3)c(-c3ccccc3)n12`, the figures for the 50% effective concentration (EC50) in test [1] and in test [2] were > 300 µM (inconclusive) and > 300 µM (not active), respectively. As to `COc1ccc(-c2ccc(/C=C3\C(=O)N(c4ccccc4)N=C3c3ccccc3)o2)c([N+](=O)[O-])c1`, in test [3], the AC50 was 5.01 µM (inconclusive). Same read-out and setting: for `N#Cc1cccc(NC(=O)N2CCCC3(CCN(C(=O)c4cc(C(F)(F)F)cc(C(F)(F)F)c4)CC3)C2)c1` the value was 6.31 µM (inconclusive).

Turning to `O=C(NNC(=O)c1csc(-c2cccnc2)n1)c1ccccc1`, the 50% effective concentration (EC50) was > 300 µM (inconclusive) in test [1] and > 300 µM (not active) in test [2]. Take `Cc1nn2c(N3CCOCC3)c3c(nc2c1-c1ccccc1)CCCC3`: the concentration giving a half-maximal response (EC50) in test [1] and in test [2] was > 300 µM (not active) each time.

Turning to `O=C(NCCOc1ccccc1)C1Nc2ccc(OC(F)(F)F)cc2C2C=CCC12` (configuration not stated), the concentration for a half-maximal effect (EC50) in test [1] and in test [2] was > 300 µM (not active) throughout. Consider `CCNc1ncc2nc(CCc3ccccc3)c(=O)n(-c3ccccc3)c2n1`, for which, in test [4], the concentration at half-maximal activity (AC50) was 31.6 µM (inconclusive).

For the molecule `N#Cc1c(N)n(-c2ccc(C(=O)O)cc2)c2nc3ccccc3nc12`, the EC50 in test [1] and in test [2] was > 300 µM (not active) in each case. Take `CCC/C=C(\CCC)C(NC(=O)c1ccc(-c2ccccc2)cc1)c1ccc(C(=O)OC)cc1` (configuration not stated): the concentration at half-maximal activity (AC50) in test [6] was 6.31 µM (inconclusive); in test [3] it was 0.631 µM (inconclusive). In the case of `COc1ccc(C(=O)N2CCC3(CCN(Cc4ccc(C#N)cc4)CC3)CC2)cc1`, the AC50 in test [5] was 31.6 µM (inconclusive); in test [3] it was 12.6 µM (inconclusive).

As for `S=C(NCc1ccncc1)Nc1ccc(Cl)cc1Cl`, the EC50 in test [1] and in test [2] was > 300 µM (not active) throughout.

In the case of `COC(=O)c1cc(C(=O)OC)cc(-n2c(C)cc(C=O)c2C)c1`, the figures for the concentration giving a half-maximal response (EC50) in test [1] and in test [2] were > 300 µM (not active) and 78.7 µM (active), respectively. With `CCOC(=O)C1=C(CN2c3ccccc3CC2C)NC(=O)NC1c1ccccc1` (configuration not stated), the values for the concentration at half-maximal activity (AC50) in test [5] and in test [3] were 25.1 µM (inconclusive) and 22.4 µM (inconclusive), respectively. For the molecule `CCOC(=O)c1ccc(-n2c(C)ccc2C)cc1`, the 50% effective concentration (EC50) in test [1] and in test [2] was > 300 µM (not active) each time.
